The text below walks through data of DBAASP.

In brackets after ≈: the same amount, converted by molar mass.

What all share (assay): ≥ marks a high value that may be exact or a test limit, other limits are often not marked, values filed in µg/mL are converted to µM
Experiment [1] relates to Staphylococcus aureus ATCC 29213.
Experiment [2] concerns Escherichia coli ATCC 25922.
For experiment [3], the system named is Escherichia coli.
The test system of experiment [4] is Staphylococcus aureus.
The subject of experiment [5] is Pseudomonas aeruginosa ATCC 27853.
The subject of experiment [6] is Pseudomonas aeruginosa.

On to `CC(=O)N[C@@H](CCCCN)C(=O)N[C@@H](CC(C)C)C(=O)N[C@@H](CC(C)C)C(=O)N[C@@H](CCCCN)C(=O)N[C@@H](CC(C)C)C(=O)N[C@@H](CC(C)C)C(=O)N[C@@H](CCCCN)C(=O)N1CCC[C@H]1C(=O)N[C@@H](CC(C)C)C(=O)N[C@@H](CC(C)C)C(=O)N[C@@H](CCCCN)C(=O)N[C@@H](CC(C)C)C(=O)N[C@@H](CC(C)C)C(=O)N[C@@H](CCCCN)C(N)=O` [KLLKLLKPLLKLLK], for which the MIC in experiment [1] came to 3.54 µM (≈ 6.02 µg/mL); in experiment [2], 10 µM (≈ 17 µg/mL).
In the same order, the values of `CC[C@H](C)[C@H](NC(=O)[C@H](CCCN=C(N)N)NC(=O)[C@H](CCC(N)=O)NC(=O)[C@@H](NC(=O)[C@H](Cc1cnc[nH]1)NC(=O)[C@H](CCCN=C(N)N)NC(=O)[C@H](CCCCN)NC(=O)[C@@H](N)Cc1ccccc1)C(C)C)C(=O)N[C@@H](CCCCN)C(=O)N[C@@H](CC(=O)O)C(=O)N[C@@H](Cc1ccccc1)C(=O)N[C@@H](CC(C)C)C(=O)N[C@@H](CCCN=C(N)N)C(=O)O` [FKRHVQRIKDFLR] are over 40 µM and 10 µM (≈ 17.4 µg/mL).
In the same order, the values of `CC[C@H](C)[C@H](NC(=O)CNC(=O)[C@H](CC(C)C)NC(=O)[C@@H](NC(=O)[C@@H]1CCCN1C(=O)[C@H](CC(N)=O)NC(=O)[C@H](CC(C)C)NC(=O)[C@H](CC(C)C)NC(=O)CNC(=O)[C@H](CC(N)=O)NC(=O)[C@H](CC(C)C)NC(=O)[C@H](CC(C)C)NC(=O)[C@@H](N)CC(=O)O)C(C)C)C(=O)N[C@@H](C)C(=O)N[C@@H](CC(N)=O)C(=O)NCC(=O)N[C@@H](CC(C)C)C(=O)N[C@H](C(=O)NCC(=O)NCC(=O)N[C@@H](CC(C)C)C(=O)N[C@H](C(=O)N[C@@H](CCCCN)C(=O)N[C@@H](CCCCN)C(N)=O)C(C)C)[C@@H](C)O` [DLLNGLLNPVLGIANGLTGGLVKK] are over 293 µM and over 293 µM.
Compound `CC[C@H](C)[C@H](NC(=O)[C@H](Cc1c[nH]c2ccccc12)NC(=O)[C@H](CCCCN)NC(=O)[C@@H]1CCCN1C(=O)[C@H](CC(C)C)NC(=O)[C@H](CCCCN)NC(=O)CNC(=O)[C@@H](NC(=O)[C@@H](NC(=O)[C@H](CO)NC(=O)[C@@H](NC(=O)[C@@H](NC(=O)[C@H](CCCCN)NC(=O)[C@H](CCC(N)=O)NC(=O)[C@H](C)N)[C@@H](C)CC)[C@@H](C)CC)[C@@H](C)O)[C@@H](C)CC)C(=O)N[C@H](C(=O)N[C@@H](CCCCN)C(=O)N[C@H](C(=O)N[C@H](C(=O)N[C@@H](CC(N)=O)C(=O)N[C@@H](CCCCN)C(=O)N[C@@H](Cc1ccccc1)C(=O)N[C@H](C(=O)N[C@@H](CCCCN)C(=O)N[C@@H](CCCCN)C(=O)O)[C@@H](C)O)C(C)C)[C@@H](C)O)[C@@H](C)CC` [AQKIISTIGKLPKWIIKTVNKFTKK] registered an MIC in experiment [3] of 2.5 µM (≈ 7.21 µg/mL).
For `C[C@H](NC(=O)[C@H](C)NC(=O)[C@H](CCCCN)NC(=O)[C@H](C)NC(=O)[C@H](Cc1ccccc1)NC(=O)[C@H](Cc1c[nH]c2ccccc12)NC(=O)[C@H](CCCCN)NC(=O)[C@H](Cc1c[nH]c2ccccc12)NC(=O)[C@H](CCCCN)NC(=O)[C@H](CCCCN)NC(=O)[C@H](C)NC(=O)[C@H](Cc1c[nH]c2ccccc12)NC(=O)[C@@H](N)CCCCN)C(=O)N[C@@H](Cc1c[nH]c2ccccc12)C(=O)N[C@@H](CCCCN)C(=O)N[C@@H](Cc1c[nH]c2ccccc12)C(=O)N[C@@H](Cc1ccc(O)cc1)C(=O)N[C@@H](CCCCN)C(=O)N[C@@H](CCCCN)C(N)=O` [KWAKKWKWFAKAAWKWYKK], the MIC in experiment [4] and in experiment [3] was over 38.9 µM in each case.
As to `NCC(=O)N[C@@H](CCCN=C(N)N)C(=O)N[C@@H](CCCN=C(N)N)C(=O)N1CCC[C@H]1C(=O)N[C@@H](CCCN=C(N)N)C(=O)N1CCC[C@H]1C(=O)N[C@@H](CCCN=C(N)N)C(=O)N1CCC[C@H]1C(=O)N[C@@H](CCCN=C(N)N)C(=O)N1CCC[C@H]1C(=O)N[C@@H](Cc1c[nH]c2ccccc12)C(=O)N[C@@H](Cc1c[nH]c2ccccc12)C(=O)N[C@@H](Cc1c[nH]c2ccccc12)C(=O)N[C@@H](Cc1c[nH]c2ccccc12)C(=O)N[C@@H](Cc1c[nH]c2ccccc12)C(=O)O` [GRRPRPRPRPWWWWW], the MIC worked out at 20 µM (≈ 43.5 µg/mL) in experiment [5], 20 µM (≈ 43.5 µg/mL) in experiment [1] and 5 µM (≈ 10.9 µg/mL) in experiment [2].
For the compound `CC[C@H](C)[C@H](NC(=O)CN)C(=O)NCC(=O)N[C@@H](CCCCN)C(=O)N[C@@H](Cc1ccccc1)C(=O)N[C@@H](CC(C)C)C(=O)N[C@@H](Cc1cnc[nH]1)C(=O)N[C@@H](CCCCN)C(=O)N[C@H](C(=O)N[C@@H](CCCCN)C(=O)N[C@@H](CO)C(=O)N[C@@H](Cc1ccccc1)C(=O)NCC(=O)N[C@@H](CCCCN)C(=O)N[C@@H](CO)C(=O)N[C@@H](Cc1c[nH]c2ccccc12)C(=O)N[C@H](C(=O)NCC(=O)N[C@@H](CCC(=O)O)C(=O)N[C@H](C(=O)N[C@@H](CCSC)C(=O)N[C@@H](CC(N)=O)C(=O)N[C@@H](CO)C(N)=O)[C@@H](C)CC)[C@@H](C)CC)C(C)C` [GIGKFLHKVKSFGKSWIGEIMNS], the MIC in experiment [5] came out at 19 µM (≈ 48.7 µg/mL); in experiment [1], 76 µM (≈ 195 µg/mL); in experiment [2], 19 µM (≈ 48.7 µg/mL).
Turning to `CC[C@H](C)[C@H](NC(=O)[C@H](CCCCN)NC(=O)[C@H](CCCCN)NC(=O)[C@@H](N)CCC(N)=O)C(=O)N[C@@H](C)C(=O)N[C@H](C(=O)N[C@@H](CCCN=C(N)N)C(=O)N[C@@H](CC(C)C)C(=O)N[C@@H](CO)C(=O)N[C@@H](C)C(=O)O)C(C)C` [QKKIAVRLSA], the MIC was 7.19 µM (≈ 8 µg/mL) in experiment [5], over 57.5 µM in experiment [1] and 28.7 µM (≈ 32 µg/mL) in experiment [2].
For the compound `CC[C@H](C)[C@H](NC(=O)[C@H](Cc1ccccc1)NC(=O)[C@H](CO)NC(=O)[C@H](CCCCN)NC(=O)[C@H](Cc1c[nH]c2ccccc12)NC(=O)[C@@H](N)CCCCN)C(=O)N[C@@H](CCCCN)C(=O)N[C@@H](CCCCN)C(=O)N[C@@H](CC(C)C)C(=O)N[C@H](C(=O)N[C@@H](CC(C)C)C(=O)N[C@@H](CCCCN)C(=O)N[C@@H](Cc1ccccc1)C(=O)N[C@@H](CC(C)C)C(=O)N[C@@H](Cc1cnc[nH]1)C(=O)N[C@@H](CO)C(=O)N[C@@H](CCCCN)C(=O)N[C@@H](CCCCN)C(=O)N[C@@H](CCCCN)C(=O)N[C@@H](Cc1ccccc1)C(N)=O)[C@@H](C)O` [KWKSFIKKLTLKFLHSKKKF], the MIC in experiment [6] was over 19.7 µM.
Turning to `CC[C@H](C)[C@H](NC(=O)[C@H](CCCN=C(N)N)NC(=O)[C@H](CCC(N)=O)NC(=O)[C@@H](NC(=O)[C@@H](NC(=O)[C@H](CCCN=C(N)N)NC(=O)[C@H](CCCCN)NC(=O)[C@@H](N)Cc1ccccc1)[C@@H](C)CC)C(C)C)C(=O)N[C@@H](CCCCN)C(=O)N[C@@H](CC(=O)O)C(=O)N[C@@H](Cc1ccccc1)C(=O)N[C@@H](C)C(=O)N[C@@H](CCCN=C(N)N)C(=O)O` [FKRIVQRIKDFAR], the values for the MIC in experiment [1] and in experiment [2] were over 40 µM and 10 µM (≈ 16.8 µg/mL), respectively.
As for `CC[C@H](C)[C@H](NC(=O)[C@H](Cc1c[nH]c2ccccc12)NC(=O)[C@H](CCCCN)NC(=O)[C@@H]1CCCN1C(=O)[C@H](CC(C)C)NC(=O)[C@H](CCCCN)NC(=O)CNC(=O)[C@@H](NC(=O)[C@@H](NC(=O)[C@H](CO)NC(=O)[C@@H](NC(=O)[C@@H](NC(=O)[C@H](CCCCN)NC(=O)[C@H](CCC(N)=O)NC(=O)[C@H](C)NC(=O)[C@@H](N)CCSC)[C@@H](C)CC)[C@@H](C)CC)[C@@H](C)O)[C@@H](C)CC)C(=O)N[C@H](C(=O)N[C@@H](CCCCN)C(=O)N[C@H](C(=O)N[C@H](C(=O)N[C@@H](CC(N)=O)C(=O)N[C@@H](CCCCN)C(=O)N[C@@H](Cc1ccccc1)C(=O)N[C@H](C(=O)N[C@@H](CCCCN)C(=O)N[C@@H](CCCCN)C(=O)O)[C@@H](C)O)C(C)C)[C@@H](C)O)[C@@H](C)CC` [MAQKIISTIGKLPKWIIKTVNKFTKK], the MIC in experiment [4] turned out to be 20.8 µM (≈ 62.7 µg/mL); in experiment [3], 3.4 µM (≈ 10.3 µg/mL).
`CC(C)C[C@H](NC(=O)[C@H](CCCN=C(N)N)NC(=O)CNC(=O)CNC(=O)[C@@H](N)CCCN=C(N)N)C(=O)N[C@H]1CSSC[C@@H](C(=O)N[C@H](C(=O)O)[C@@H](C)O)NC(=O)[C@H](C(C)C)NC(=O)[C@@H]2CSSC[C@H](NC(=O)[C@H](Cc3ccc(O)cc3)NC1=O)C(=O)N[C@@H](CCCN=C(N)N)C(=O)N[C@@H](CCCN=C(N)N)C(=O)N[C@@H](CCCN=C(N)N)C(=O)N[C@@H](Cc1ccccc1)C(=O)N2` [RGGRLCYCRRRFCVCT]: the MIC in experiment [3] was determined as 0.359 µM (≈ 0.699 µg/mL).
In experiment [1], `CC[C@H](C)[C@H](NC(=O)CNC(=O)[C@H](CCCCN)NC(=O)[C@H](CCCCN)NC(=O)[C@H](CCCCN)NC(=O)[C@@H](N)CCCCN)C(=O)NCC(=O)N[C@@H](CCCCN)C(=O)N[C@@H](Cc1ccccc1)C(=O)N[C@@H](CC(C)C)C(=O)N[C@@H](Cc1cnc[nH]1)C(=O)N[C@@H](CO)C(=O)N[C@@H](C)C(=O)N[C@@H](CCCCN)C(=O)N[C@@H](CCCCN)C(=O)N[C@@H](Cc1ccccc1)C(=O)NCC(=O)N[C@@H](CCCCN)C(=O)N[C@@H](C)C(=O)N[C@@H](Cc1ccccc1)C(=O)N[C@H](C(=O)NCC(=O)N[C@@H](CCC(=O)O)C(=O)N[C@H](C(=O)N[C@@H](CCSC)C(=O)N[C@@H](CC(N)=O)C(=O)N[C@@H](CO)C(=O)O)[C@@H](C)CC)C(C)C` [KKKKGIGKFLHSAKKFGKAFVGEIMNS] yielded an MIC of over 33.6 µM.
Turning to `CC(C)C[C@H](NC(=O)[C@H](CCCCN)NC(=O)[C@@H]1CSSC[C@H](NC(=O)[C@H](CC(C)C)NC(=O)[C@H](CCCCN)NC(=O)[C@H](CC(C)C)NC(=O)[C@H](CC(C)C)NC(=O)[C@H](CCCCN)NC(=O)[C@H](CCCCN)NC(=O)[C@@H](N)CC(C)C)C(=O)N[C@@H](CCCCN)C(=O)N[C@@H](CCCCN)C(=O)N[C@@H](CC(C)C)C(=O)N1)C(=O)N[C@@H](C)C(=O)NCC(=O)O` [LKKLLKLCKKLCKLAG], the values for the MIC in experiment [1], in experiment [3] and in experiment [2] were over 40 µM, 20 µM (≈ 36 µg/mL) and 5 µM (≈ 8.99 µg/mL), respectively.
On to `CC(C)C[C@H](NC(=O)[C@H](CCCCN)NC(=O)[C@H](CC(C)C)NC(=O)[C@H](CC(C)C)NC(=O)[C@H](CCCCN)NC(=O)[C@H](CCCCN)NC(=O)[C@H](CC(C)C)NC(=O)[C@H](CC(C)C)NC(=O)[C@H](CCCCN)NC(=O)[C@H](CC(C)C)NC(=O)[C@H](CC(C)C)NC(=O)[C@H](CCCCN)NC(=O)[C@H](CCCCN)NC(=O)[C@H](C)N)C(=O)N[C@@H](C)C(=O)NCC(=O)O` [AKKLLKLLKKLLKLAG], for which the values for the MIC in experiment [1] and in experiment [2] were 10 µM (≈ 17.8 µg/mL) and 5 µM (≈ 8.89 µg/mL), respectively.
